Series [1] addresses Tyrosine-protein kinase HCK (Homo sapiens) (UniProt P08631). The note with it: BaF3.
Description: Inhibition of TEL-HCK (unknown origin) expressed in mouse BA/F3 cells assessed as growth inhibition after 72 hrs by CellTiter-Glo or CCK-8 assay
The nature of series [2]: AUC(0 to infinity) in Sprague-Dawley rat at 10 mg/kg, po. Format: ADME, organism-based. The note with it: in vivo. Further details: dose 10 mg/kg, time infinity, route oral.
For series [3], the system named is Bcr/Abl fusion protein (Homo sapiens), P00519+P11274 [Q252H]. Particulars: BaF3.

Tyrosine-protein kinase HCK (Homo sapiens), sequence (P08631 2-526 limits assumed): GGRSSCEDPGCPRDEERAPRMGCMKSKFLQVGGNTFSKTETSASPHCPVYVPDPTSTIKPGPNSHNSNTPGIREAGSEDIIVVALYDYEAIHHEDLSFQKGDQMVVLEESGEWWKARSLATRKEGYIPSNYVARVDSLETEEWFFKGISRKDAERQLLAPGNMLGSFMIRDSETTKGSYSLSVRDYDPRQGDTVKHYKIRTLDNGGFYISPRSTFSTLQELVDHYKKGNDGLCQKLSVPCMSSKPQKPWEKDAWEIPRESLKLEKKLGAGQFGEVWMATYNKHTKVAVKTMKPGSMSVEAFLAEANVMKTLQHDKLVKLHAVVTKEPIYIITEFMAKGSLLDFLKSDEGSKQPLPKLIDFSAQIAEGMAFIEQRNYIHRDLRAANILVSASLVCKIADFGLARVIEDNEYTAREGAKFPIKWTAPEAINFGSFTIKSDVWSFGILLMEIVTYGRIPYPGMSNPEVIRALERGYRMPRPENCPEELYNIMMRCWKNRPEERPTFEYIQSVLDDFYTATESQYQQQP

What is called GI50 is the concentration giving 50% growth inhibition. A lower GI50 goes with greater sensitivity of the cells. As a reminder, the AUC(0-inf) is the area under the concentration-time curve extrapolated to infinity. A low value points to low exposure. In the case of `CNc1nc(Nc2ccc(C)c(N)c2)ncc1C(=O)Nc1cc(NC(=O)c2cccc(C(F)(F)F)c2)ccc1C`, the GI50 in series [1] amounted to 980 nM; in series [3], 140 nM. The same compound gave an AUC(0-inf) in series [2] of 1740 ng·h/mL.

The record behind these values is ChEMBL document CHEMBL3779840, “Discovery of 2-((3-Amino-4-methylphenyl)amino)-N-(2-methyl-5-(3-(trifluoromethyl)benzamido)phenyl)-4-(methylamino)pyrimidine-5-carboxamide (CHMFL-ABL-053) as a Potent, Selective, and Orally Available BCR-ABL/SRC/p38 Kinase Inhibitor for Chronic Myeloid Leukemia” (J Med Chem, 2016).
